Source: patent US6605637B1, “Lipoic acid derivatives, their preparation, and pharmaceutical compositions containing them” (Societe de Conseils de Recherches et d'Applications …, priority 1999, dated 2003)
Counter-ions that a name gives are not always drawn.

These molecules were tested on HT-22 cells (assay: Protection of HT-22 cells from oxidation stress induced by glutamate (MTT viability)). Conditions: HT-22 mouse hippocampal line; glutamate 5 mM; viability after 24 h by MTT.
Assay type: cell-based
Experimental: Study of the Effects on the Oxidation Stress Induced by Glutamate on Cells in Culture (HT-22).
The inhibitory activity of the products of the invention is determined by measuring their ability to protect the cells of a mouse hippocampal line (HT-22) of an oxidation stress caused by glutamate. The biosynthesis of glutathione, an essential element of cell detoxification of free radicals, requires the active transport of cystine to the interior of the cell. The glutamate by opposing the penetration of cystine causes a reduction in the level of glutathione which leads to the death of the cell due to oxidation stress (Davis, J. B. and Maher, P., Brain Res., (1994) 652: 169-173; Murphy, T. H. et al., Neuron, (1989) 2: 1547-1558). The cells are cultured at 37° C. in a DMEM medium with 10% of foetal calf serum added to it. The tests are carried out in 96-well plates containing 5000 cells per well. The glutamate (5 mM) is added to the medium containing or not containing the products to be tested. The cell viability is tested after 24 h by the MTT method (Hansen, M. B. et al., J Immunol. Methods (1989), 119, 203-210). The ability of the compounds to protect the cells from the toxic action of the glutamate is estimated in EC50, calculated relative to the viability of cells which have not been subjected to the action of glutamate considered as 100% viability.

Row | SMILES | EC50 [µM]
1 | N=C(Nc1ccc(NC(=O)CCCCC2CCSS2)cc1)c1cccs1 (stereo not shown) [Example 1, N-{4-[[(2-Thienyl)(imino)methyl]amino]phenyl}-1,2-dithiolane-3-pentanamide Hydrochloride] | < 30
2 | N=C(Nc1ccc(CCNC(=O)CC2CCSS2)cc1)c1cccs1 (stereo not shown) [Example 3, N-{2-{4[[(2-Thienyl)(imino)methyl]amino]phenyl}ethyl}-1,2-dithiolane-3-acetamide Hydrochloride] | < 30
3 | Cc1cc(N)nc(CCCCNC(=O)CC2CCSS2)c1 (stereo not shown) [Example 5, N-[4-(6-Amino-4-methyl-2-pyridinyl)butyl]-1,2-dithiolane-3-acetamide Fumarate] | < 30
4 | N=C(Nc1ccc(CCNC(=O)CCCCC2CCSS2)cc1)c1cccs1 (stereo not shown) [Example 2, N-{2-{4[[(2-Thienyl)(imino)methyl]amino]phenyl}ethyl}-1,2-dithiolane-3-pentanamide] | < 30
